The results in this text go back to paper PMC12863032, “Design, synthesis, and anticancer activity of novel isocryptolepine ‘aza’ type acyl thiourea derivatives via combined experimental and computational approach” (Bioscience Reports, 2026).

Usually IC50 stands for the concentration that inhibits the measured activity by half. A lower IC50 goes with greater potency in that assay.

Holding throughout (type): biochemical
In assay [1] the target is mushroom tyrosinase. Put plainly: Mushroom tyrosinase inhibition assay. Particulars: L-DOPA substrate, Mean ± SEM. The method, then:
The inhibition of mushroom tyrosinase (Sigma Chemical, U.S.A.) was performed in accordance with previously documented methodologies [[57–59]]. Each well of a 96-well microplate received 20 µl of mushroom tyrosinase (30 U/ml), 20 µl of the inhibitor solution, and 140 µl of phosphate buffer (20 mM, pH 6.8). After a 10 min preincubation at room temperature, 20 µl of L-DOPA (3,4-dihydroxyphenylalanine, Sigma Chemical, U.S.A.) at a concentration of 0.85 mM was added, and the test plate was incubated for an additional 20 min at 25°C. The absorbance of dopachrome was later quantified at 475 nm using a microplate reader (SpectraMax ABS, U.S.A.). […] Every experiment was performed three times. IC50 values were calculated by nonlinear regression using GraphPad Prism 5.0 (GraphPad, San Diego, CA U.S.A.).
The % Inhibition of tyrosinase was calculated as following:
Tyrosinase % Inhibition= (Blank−Sample)/B×100 = ( Equation 1 ).

The target of a further assay is carbonic anhydrase (Bos taurus, UniProt P00921). Put plainly: Carbonic anhydrase inhibition assay (p-nitrophenyl acetate hydrolysis). The note with it: bovine enzyme, p-nitrophenyl acetate substrate, Mean ± SEM. The protocol:
The inhibition of carbonic anhydrase was assessed as previously outlined, with certain modifications [[60–62]]. The method employed involves the hydrolysis of p-nitrophenyl acetate by carbonic anhydrase, resulting in the formation of yellow p-nitrophenol, which was subsequently analyzed through spectrophotometry. The reaction mixture included 20 µl of inhibitor, 120 µl of 50 mM Tris-Sulfate buffer (pH 7.6 with 0.1 mM ZnCl2), and 20 µl of bovine enzyme (50 U) per well. The components were mixed and preincubated at 25°C for 10 min. A 6 mM stock solution of the substrate p-nitrophenyl acetate was prepared with less than 5% acetonitrile in buffer and utilized fresh for each experiment, with 40 µl added per well to attain a concentration of […] per well. The total reaction volume was adjusted to 200 µl. […] Acetazolamide served as the reference standard. Each concentration underwent three separate evaluations. IC50 values were determined through nonlinear regression analysis utilizing GraphPad Prism 5.0 (GraphPad, San Diego, CA, U.S.A.).
Inhibition(%)=(B−S)/B×100
Here, the B and S are the absorbances for the blank and samples.

Assay [2] addresses calf intestinal alkaline phosphatase (CIAP) (Bos taurus, UniProt P19111). Put plainly: Alkaline phosphatase inhibition assay. Particulars: p-NPP substrate, Mean ± SEM. The method, then: Spectrophotometric analysis, as previously described in publications, can be used to evaluate the activity of calf intestinal alkaline phosphatase (CIAP). The reaction mixture, including 10 µl of the reagent and 50 mM Tris-HCl buffer (5 mM MgCl2, 0.1 mM ZnCl2, pH 9.5), is preincubated for 10 min following the addition of 5 µl of CIAP (0.025 U/ml). The test mixture was then incubated at 37°C for another half hour after 10 µl of a substrate (0.5 mM p-NPP, para nitrophenyl phosphate disodium salt) was added to initiate the reaction. The alteration in absorbance of released p-nitrophenolate was measured using a 96-well microplate reader (Thermo Scientific Multiskan GO, U.S.A.) at 405 nm. All tests were repeated three times. […] The inhibition activity was calculated according to the following equation:
Inhibition(%)=(Blank−Sample)/Blank×100
IC50 values were designed using 6–8 serial dilutions, and the data were analyzed by nonlinear regression using GraphPad Prism 5 (GraphPad, San Diego, CA, U.S.A.).

The test system of assay [3] is mushroom tyrosinase. Put plainly: Mushroom tyrosinase inhibition assay.

calf intestinal alkaline phosphatase (CIAP), sequence (P19111 20-533): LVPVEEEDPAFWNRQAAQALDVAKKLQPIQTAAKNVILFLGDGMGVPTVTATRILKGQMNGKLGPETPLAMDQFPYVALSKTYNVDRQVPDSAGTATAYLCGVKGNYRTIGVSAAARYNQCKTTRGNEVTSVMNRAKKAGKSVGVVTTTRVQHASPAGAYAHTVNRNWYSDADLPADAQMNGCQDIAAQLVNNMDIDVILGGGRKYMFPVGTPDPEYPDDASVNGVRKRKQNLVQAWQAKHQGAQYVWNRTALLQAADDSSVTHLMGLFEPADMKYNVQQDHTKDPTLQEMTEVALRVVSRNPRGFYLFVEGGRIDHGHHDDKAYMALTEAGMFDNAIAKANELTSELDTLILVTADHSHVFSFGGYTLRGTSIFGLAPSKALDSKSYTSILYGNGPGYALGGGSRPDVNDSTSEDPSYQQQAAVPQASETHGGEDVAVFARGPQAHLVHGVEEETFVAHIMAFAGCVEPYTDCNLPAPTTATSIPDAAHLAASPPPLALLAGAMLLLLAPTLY
carbonic anhydrase, sequence (P00921 whole entry): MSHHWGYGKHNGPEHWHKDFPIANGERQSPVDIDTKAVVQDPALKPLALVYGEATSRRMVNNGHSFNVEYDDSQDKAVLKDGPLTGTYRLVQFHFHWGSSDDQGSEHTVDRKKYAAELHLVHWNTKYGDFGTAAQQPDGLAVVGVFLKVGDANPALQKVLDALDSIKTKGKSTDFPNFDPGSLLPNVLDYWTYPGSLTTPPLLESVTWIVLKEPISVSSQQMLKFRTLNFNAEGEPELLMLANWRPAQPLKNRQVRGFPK

On to `CCCCCCCC(=O)NC(=S)Nc1ccccc1-c1nc2ccccc2c2nc3ccccc3n12` [Compound 6e, N-((2-(Benzo [4, 5]imidazo[1,2 c]quinazolin-6-yl)phenyl)carbamothioyl)octanamide], for which the results for the IC50 (against mushroom tyrosinase [1]; against carbonic anhydrase; in assay [2]) were 1.85 ± 0.886 µM, 1.08 ± 0.42 µM and 7.77 µM, respectively.

Regarding `CCCCCC(=O)NC(=S)Nc1ccccc1-c1nc2ccccc2c2nc3ccccc3n12` [Compound 6c, N ((2-(Benzo [4, 5]imidazo[1,2 c]quinazolin-6-yl)phenyl)carbamothioyl)hexanamide], the IC50 came to 2.8 ± 0.85 µM against mushroom tyrosinase [1], 7.42 ± 0.74 µM on carbonic anhydrase and 20.3 µM in assay [2].

As for `CCCC(=O)NC(=S)Nc1ccccc1-c1nc2ccccc2c2nc3ccccc3n12` [Compound 6a, N-((2-(Benzo [4, 5]imidazo[1,2 c]quinazolin-6-yl)phenyl)carbamothioyl)butyramide], the IC50 at mushroom tyrosinase [1] was found to be 7.95 ± 0.63 µM; on carbonic anhydrase, 10.9 ± 0.99 µM; in assay [2] it was 20.6 µM.

As to `CCCCCCC(=O)NC(=S)Nc1ccccc1-c1nc2ccccc2c2nc3ccccc3n12` [Compound 6d, N-((2-(Benzo [4, 5]imidazo[1,2 c]quinazolin-6-yl)phenyl)carbamothioyl)heptanamide], the IC50 on mushroom tyrosinase [1] amounted to 0.921 ± 0.07 µM; at carbonic anhydrase it was 3.51 ± 0.63 µM; in assay [2], 16.6 ± 0.98 µM.

Turning to `CC(C)(C)C(=O)NC(=S)Nc1ccccc1-c1nc2ccccc2c2nc3ccccc3n12` [Compound 6h, N-((2-(Benzo [4, 5]imidazo[1,2 c]quinazolin-6-yl)phenyl)carbamothioyl)pivalamide], the figures for the IC50 (against mushroom tyrosinase [1]; on carbonic anhydrase; in assay [2]) were 1.27 ± 0.17 µM, 2.33 ± 0.34 µM and 7.2 ± 0.63 µM, respectively.

For `CCCCCCCCC(=O)NC(=S)Nc1ccccc1-c1nc2ccccc2c2nc3ccccc3n12` [Compound 6f, N -((2-(Benzo[4,5]imidazo[1,2-c]quinazolin-6-yl)phenyl)carbamothioyl)nonanamide], the concentration for half-maximal inhibition (IC50) amounted to 2.05 ± 0.97 µM on mushroom tyrosinase [1], 7.14 ± 0.95 µM against carbonic anhydrase and 7.02 µM in assay [2].

Take `CCCCC(=O)NC(=S)Nc1ccccc1-c1nc2ccccc2c2nc3ccccc3n12` [Compound 6b, N -((2-(Benzo[4,5]imidazo[1,2-c]quinazolin-6-yl)phenyl)carbamothioyl)pentanamide]: the IC50 was 4.88 ± 0.54 µM against mushroom tyrosinase [1], 2.76 ± 0.56 µM against carbonic anhydrase and 10.7 ± 0.96 µM in assay [2].

In the case of `CCCCCCCCCC(=O)NC(=S)Nc1ccccc1-c1nc2ccccc2c2nc3ccccc3n12` [Compound 6g, N -((2-(Benzo[4,5]imidazo[1,2-c]quinazolin-6-yl)phenyl)carbamothioyl)decanamide], the IC50 came out at 0.832 ± 0.03 µM on mushroom tyrosinase [1], 0.708 ± 0.02 µM at carbonic anhydrase and 2.81 ± 0.42 µM in assay [2]. In addition, in the assay on mushroom tyrosinase [3], the “Type of tyrosinase inhibition (kinetic studies)” value was “competitive inhibition”.
